Reference: patent US8614215B2, “Quinoxaline inhibitors of phosphoinositide-3-kinases (PI3Ks)” (Merck Serono SA, priority 2007, dated 2013)

How the values were obtained:
[1] = test system: IgM-induced Akt phosphorylation in B cell; assay: IgM-induced Akt phosphorylation in B cell (PBMC, flow cytometry); type: cell-based; details: human PBMC, CD19+ IgM+ B cells, read-out: IC50 μM, inhibition of IgM-induced Akt phosphorylation
Protocol: Human PBMC were prepared from a Buffy coat (Geneve Hospital) after a Ficoll gradient (Ficoll-Paque™ Plus PHARMACIA ref: 17-1440-03).
Cell concentration was adjusted to 10^6 cells per mL in RPMI (GIBCO Ref: 72400-21) without serum. Before stimulation, 90 μl of PBMC suspension was incubated with 10 μl of diluted compound in a 96 well round bottom plate for 20 minutes at 37° C.
For B cell activation, 30 μl of Fab′2 Goat anti IgM (Jackson Immuno-research) at10 μg/mL was added to each well. After 5 minutes, cell activation was stopped with 4% paraformaldehyde (10 minutes at room temperature).
Fixed PBMC were then treated for 20 minutes with 0.15% Triton, washed twice with PBS and permeabilized with 50% methanol for 15 minutes.
PBMC were washed twice in PBS, resuspended in: PBS-4% FCS and incubated with anti P-Akt ( 1/100 dilution) for one h at room temperature.
After one wash, PBMC were further stained for 30 minutes with a mixture of anti-CD19-PE (BD Biosciences), anti-IgM-FITC (BD Biosciences) and goat anti rabbit IgG-Alexa 647 (Molecular probe).
After washing, PBMC (Peripheral Blood Mononuclear Cells) were analysed on a FACSCalibur instrument (BD Biosciences) equipped with a 633 helium-neon laser, or stored at 4° C. for further analysis. 510^3 B cells events were gathered per sample in the CD19 positive region.
For the analysis, a threshold was applied on P-Akt histogram of CD19+ IgM+ lymphocytes cells from the non stimulated samples and the percentage of cells above this threshold was determined for each sample.

[2] = test system: Human recombinant GST-PI3K; assay: PI3K induced-lipid phosphorylation, neomycin-SPA scintillation proximity assay; type: biochemical; details: Human recombinant GST-PI3K, SPA
[3] = test system: IgM-induced Akt phosphorylation in B cell in the presence of whole blood; assay: IgM-induced Akt phosphorylation in B cell in the presence of whole blood; type: cell-based; details: Homo sapiens, CD19+ IgM+ cells, read-out: IC50 μM, inhibition of IgM-induced Akt phosphorylation in the presence of whole blood
Protocol: 100 μl of blood are pre-incubated in falcon tube (352063) for 20 minutes at 37° C.
For B cell activation 100 μl of Fab′2 Goat anti Human IgM (30 ug/mL final) is added to each tube and cells are maintained at 37° C.
After 5 minutes, cell activation is stopped with 130 μl Formaldehyde 10% (4% final) and cells are left 10 minutes at room temperature.
Fixed cells are then treated 30 minutes with Triton 0.1% final (add 1 mL of 0.15% Triton)
After several washes with PBS (red cells lysed progressively during washes, 3-4 washes are necessary), cells are transferred in 96 well plate and permeabilized with 50% ice cold Methanol (resuspend first the cells with 80 μl PBBS and then with 80 μl 100% ice cold Methanol) and put on ice for 15 minutes. Plate can be stored in −20° C. in methanol and surface staining performed another day).
Cells are washed twice with PBS and once with the staining buffer-PBS-4% FCS.
Cells are incubated with anti P-Akt (1/70 dilution) In staining buffer for one h.
After a wash with staining buffer, cells are stained with a mixture of anti CD19-PE (3 ul/well), anti-IGM-FITC (3 ul/well), Goat anti rabbit IgG-Alexa 647 (1/500), goat IgG (1/200) for 30 minutes.
After a wash, cells are resuspended in staining buffer or PBS, kept in fridge or immediately passed on a FACSCalibur instrument (BD Biosciences) equipped with a 633 helium-neon laser (red laser).
P-akt histogram of CD19+IGM+ cells is represented and a threshold is set with the non stimulated sample. The parameter reported for each sample is the % of positive cells above this cursor. A representative example is set out in FIG. 1.

[4] = Ex-vivo IgM-induced Akt phosphorylation in mouse after oral administration; details: male, C57Bl/6, blood
Protocol: Compounds are dissolved in 0.5% Carboxymethylcellulose containing 0.25% Tween 20 in water and administered orally to each mouse (6-8 weeks old C57B1/6 males from janvier) in a volume of 10 mL/kg. Half an hour before blood collection, heparin at 100 U/kg is injected intraperitonealy to each mouse. At appropriate Tm (maximum exposure) mice are sacrificed and blood collected by intra-cardiac puncture in heparinised tubes.
Blood is pre-incubated at 37° C. for 20 minutes, then an equal volume of Fab′2 Goat anti-Mouse IgM (μspecific, Jackson ImmunoResearch) at 60 μg/mL is added to each tube. B cell activation is terminated after 3 minutes using formaldehyde 4% final and red blood cells are lysed with another 30 minutes Triton X-100 0.1% treatment. Further to several washes with PBS, cells are transferred in a 96 well plate, permeabilized with 50% ice cold Methanol and put on ice for 15 minutes.
Cells were washed PBS before being incubated for one hour with a Rabbit anti Phospho-Akt antibody (4058 from Cell Signaling) in PBS-4% FCS. […]
Cells were analysed on a FACSCalibur instrument (BD Biosciences) equipped with a 633 helium-neon laser (red laser) and 5.10^3 B cells are collected. A threshold was applied on P-Akt histogram of B220^+ IgM+ lymphocytes from the non stimulated tube and the percentage of cells above this threshold is determined for each sample.

CK2 protein kinase = CK2 protein kinase (Homo sapiens (Human), UniProt P68400); details: Fruman et al., 1998; cited from earlier work
Class I PI3-kinases = details: Fruman et al., 1998; read-out: IC50 against each of the various Class I PI3-kinases; cited from earlier work

Sequence of CK2 protein kinase (P68400 whole entry): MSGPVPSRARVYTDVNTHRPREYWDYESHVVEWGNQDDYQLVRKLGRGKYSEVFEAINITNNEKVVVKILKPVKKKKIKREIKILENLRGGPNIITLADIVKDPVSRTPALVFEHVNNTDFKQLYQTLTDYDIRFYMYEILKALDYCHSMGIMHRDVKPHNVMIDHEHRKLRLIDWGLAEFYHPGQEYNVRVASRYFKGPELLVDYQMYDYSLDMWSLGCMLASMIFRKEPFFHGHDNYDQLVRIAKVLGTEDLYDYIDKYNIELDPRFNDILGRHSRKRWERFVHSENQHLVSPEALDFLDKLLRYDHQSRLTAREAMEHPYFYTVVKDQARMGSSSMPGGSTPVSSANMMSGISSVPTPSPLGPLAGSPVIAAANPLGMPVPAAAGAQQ

SMILES | IC50 [1] [µM] | IC50 [2] [µM] | other results
COC(=O)c1ccc(OC)cc1Nc1nc2ccccc2nc1NS(=O)(=O)c1cn(C)cn1 [Example 1, methyl 4-methoxy-2-[(3-{[(1-methyl-1H-imidazol-4-yl)sulfonyl]amino}quinoxalin-2-yl)amino]benzoate] | 0.07 | 0.021 | 
COC(=O)c1ccc(OC)cc1Nc1nc2ccccc2nc1NS(=O)(=O)c1cccnc1 [Example 2] | 0.04 | 0.088 | 
COc1ccc(CC2CCOCC2)c(Nc2nc3ccccc3nc2NS(=O)(=O)c2cn(C)cn2)c1 [Example 7, N-(3-{[5-methoxy-2-(tetrahydro-2H-pyran-4-ylmethyl)phenyl]amino}quinoxalin-2-yl)-1-methyl-1H-imidazole-4-sulfonamide] | 0.02 | 0.049 | 
COc1ccc(CC2CCOCC2)c(Nc2nc3ccccc3nc2NS(C)(=O)=O)c1 [Example 8, N-(3-{[5-methoxy-2-(tetrahydro-2H-pyran-4-ylmethyl)phenyl]amino}quinoxalin-2-yl)methanesulfonamide] | 0.07 | 0.13 | 
COc1ccc(CC2CCOCC2)c(Nc2nc3ccccc3nc2NS(=O)(=O)c2cccnc2)c1 [Example 9, N-(3-{[5-methoxy-2-(tetrahydro-2H-pyran-4-ylmethyl)phenyl]amino}quinoxalin-2-yl)pyridine-3-sulfonamide] | 0.01 | 0.027 | 
COc1ccc(CC2CCN(C)CC2)c(Nc2nc3ccccc3nc2NS(=O)(=O)c2cn(C)cn2)c1 [Example 11, N-[3-({5-methoxy-2-[(1-methylpiperidin-4-yl)methyl]phenyl}amino)quinoxalin-2-yl]-1-methyl-1H-imidazole-4-sulfonamide] | 0.07 | 0.043 | IC50 [3]: 0.3 µM
COc1ccc(CC2CCN(C)CC2)c(Nc2nc3ccccc3nc2NS(C)(=O)=O)c1 [Example 13, N-[3-({5-methoxy-2-[(1-methylpiperidin-4-yl)methyl]phenyl}amino)quinoxalin-2-yl]methanesulfonamide] | 0.07 | 0.11 | IC50 [3]: 1 µM
COc1ccc(CC2CCN(C(C)=O)CC2)c(Nc2nc3ccccc3nc2NS(=O)(=O)c2cn(C)cn2)c1 [Example 16, N-[3-({2-[(1-acetylpiperidin-4-yl)methyl]-5-methoxyphenyl}amino)quinoxalin-2-yl]-1-methyl-1H-imidazole-4-sulfonamide] | 0.076 | 0.089 | 
COc1ccc(CC2CCN(C(C)=O)CC2)c(Nc2nc3ccccc3nc2NS(=O)(=O)c2cccnc2)c1 [Example 17] | 0.037 | 0.051 | 
COc1ccc(CC2CCC(O)CC2)c(Nc2nc3ccccc3nc2NS(=O)(=O)c2cccnc2)c1 (centres unmarked) [Example 23, N-[3-({2-[(4-hydroxycyclohexyl)methyl]-5-methoxyphenyl}amino)quinoxalin-2-yl]pyridine-3-sulfonamide] | 0.017 | 0.02 | 
COc1ccc(CN2CCN(C)CC2)c(Nc2nc3ccccc3nc2NS(=O)(=O)c2cccnc2)c1 [Example 81, N-[3-({5-methoxy-2-[(4-methylpiperazin-1-yl)methyl]phenyl}amino)quinoxalin-2-yl]pyridine-3-sulfonamide] | 0.03 | 0.049 | IC50 [3]: 1.9 µM; Tmax [4]: 15 min
COc1ccc(CC2CCOCC2)c(Nc2nc3ccccc3nc2NS(=O)(=O)c2ccc(CN(C)C)cc2)c1 [Example 86, 4-[(dimethylamino)methyl]-N-(3-{[methoxy-2-(tetrahydro-2H-pyran-4-ylmethyl)phenyl]amino}quinoxalin-2-yl)benzenesulfonamide] | 0.013 |  | 
O=c1cc(N2CCOCC2)oc2c(-c3ccccc3)cccc12 [LY294002] |  |  | IC50 (CK2 protein kinase): 5000 to 10000 µM
COC[C@H]1OC(=O)c2coc3c2[C@@]1(C)C1=C(C3=O)[C@@H]2CCC(=O)[C@@]2(C)C[C@H]1OC(C)=O [Wortmannin] |  |  | IC50 (Class I PI3-kinases): 0.001 to 0.01 µM
